Assay results as given in US20220089575A1, “FARNESOID X RECEPTOR AGONISTS AND USES THEREOF” (Metacrine, Inc., priority 2017, published 2022).
pEC50: −log10 of the molar value.

What follows are compounds tested against T1, hFXR (Homo sapiens, UniProt Q96RI1) (assay: In Vitro FXR Assay (TK): TK-ECRE-luc reporter in transfected CV-1 cells). Settings: 18 hrs, luminescence, maximum efficacy of <25% of the Fexarmine control classified as '+'.
T1 construct: expressed in transfected cells; host or cells: CV-1 cells
T1 sequence (Q96RI1 1-486): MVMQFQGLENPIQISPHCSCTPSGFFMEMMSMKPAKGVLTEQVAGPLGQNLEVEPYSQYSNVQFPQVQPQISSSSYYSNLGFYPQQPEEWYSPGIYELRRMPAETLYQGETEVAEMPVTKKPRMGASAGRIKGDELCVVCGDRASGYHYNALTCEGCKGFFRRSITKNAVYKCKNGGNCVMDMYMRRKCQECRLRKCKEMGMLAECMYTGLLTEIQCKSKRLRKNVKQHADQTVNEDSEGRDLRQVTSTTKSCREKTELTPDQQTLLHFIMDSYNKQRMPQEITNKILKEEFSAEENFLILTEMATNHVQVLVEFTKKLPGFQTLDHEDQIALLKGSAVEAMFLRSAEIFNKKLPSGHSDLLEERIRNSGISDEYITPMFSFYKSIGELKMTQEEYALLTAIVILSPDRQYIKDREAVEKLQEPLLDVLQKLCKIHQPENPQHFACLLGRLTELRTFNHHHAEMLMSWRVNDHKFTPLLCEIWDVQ
T1 sequence (P19793 1-462 partner): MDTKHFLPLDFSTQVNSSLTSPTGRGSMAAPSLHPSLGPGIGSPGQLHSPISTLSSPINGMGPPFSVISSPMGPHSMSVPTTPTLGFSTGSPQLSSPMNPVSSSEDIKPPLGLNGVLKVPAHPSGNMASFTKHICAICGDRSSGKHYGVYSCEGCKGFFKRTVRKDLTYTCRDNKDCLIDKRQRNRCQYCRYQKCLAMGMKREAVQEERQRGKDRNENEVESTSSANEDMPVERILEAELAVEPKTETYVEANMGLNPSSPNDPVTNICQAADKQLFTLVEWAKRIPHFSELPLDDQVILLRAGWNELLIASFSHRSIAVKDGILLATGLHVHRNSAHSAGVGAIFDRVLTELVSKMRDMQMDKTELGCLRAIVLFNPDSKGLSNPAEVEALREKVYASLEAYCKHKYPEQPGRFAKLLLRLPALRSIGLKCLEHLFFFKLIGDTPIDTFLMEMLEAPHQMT
Assay type: cell-based
Outline: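 CV-1 cells in DMEM with 10% charcoal-stripped FBS were co-transfected with hFXR, hRXR, TK-ECRE-luc reporter and pCMX-YFP plasmids. After 18 h, compounds serially diluted in DMSO were added for a further 18 h, then cells were lysed and luminescence read.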

pEC50 | SMILES
≥ 6.60 | COc1ccc(C23CCC(CN(c4cccc(-c5coc(C6CC6)n5)c4)C(=O)[C@H]4CC[C@H](OC(=O)NCCO)CC4)(CC2)CC3)cc1C [Compound 6.45, 4-((3-(2-Cyclopropyloxazol-4-yl)phenyl) ((4-(4-methoxy-3-methylphenyl)bicyclo [2.2.2]octan-1-yl)methyl)carbamoyl) cyclohexyl trans-(2-hydroxyethyl) carbamate]
≥ 6.60 | CNC(=O)O[C@]1(C)CC[C@@H](C(=O)N(C[C@H]2CC[C@H](c3ccc(OC)c(C)c3)CC2)c2cccc(-c3cnn(C(C)C)c3)c2)CC1 [Compound 5.52, trans-4-((3-(1-Isopropyl-1H-pyrazol-4-yl)phenyl)((trans-4-(4-methoxy-3-methylphenyl)cyclohexyl)methyl)carbamoyl)-1-methylcyclohexyl methylcarbamate]
≥ 6.60 | COc1ccc([C@H]2CC[C@H](CN(c3cc(-c4cnn(C5CC5)c4)ccn3)C(=O)[C@H]3CC[C@H](OC(=O)N4CC(O)C4)CC3)CC2)cc1C [Compound 4.27, trans-4-((4-(1-Cyclopropyl-1H-pyrazol-4-yl)pyridin-2-yl)((trans-4-(4-methoxy-3-methylphenyl)cyclohexyl)methyl)carbamoyl)cyclohexyl 3-hydroxyazetidine-1-carboxylate]
≤ 6.00 | COc1ccc([C@H]2CC[C@H](CN(c3cc(-c4cnn(C(C)C)c4)ccn3)C(=O)[C@H]3CC[C@H](CC(=O)O)CC3)CC2)nc1C#N [Compound 17.27, 2-(trans-4-(((trans-4-(6-Cyano-5-methoxypyridin-2-yl)cyclohexyl)methyl)(4-(1-isopropyl-1H-pyrazol-4-yl)pyridin-2-yl)carbamoyl)cyclohexyl)acetic acid]
≥ 6.60 | COC(=O)NC[C@H]1CC[C@H](C(=O)N(C[C@H]2CC[C@H](c3ccc(OC)c(C)n3)CC2)c2cc(-c3coc(C4CC4)n3)ccn2)CC1 [Compound 26.27, Methyl ((trans-4-((4-(2-cyclopropyloxazol-4-yl)pyridin-2-yl)((trans-4-(5-methoxy-6-methylpyridin-2-yl)cyclohexyl)methyl)carbamoyl)cyclohexyl)methyl)carbamate]
≥ 6.60 | CNC(=O)O[C@H]1CC[C@H](C(=O)N(C[C@H]2CC[C@H](c3ccc(OC)c(C#N)n3)CC2)c2cccc(-c3coc(C(C)C)n3)c2)CC1 [Compound 5.46, trans-4-(((trans-4-(6-Cyano-5-methoxypyridin-2-yl)cyclohexyl)methyl)(3-(2-isopropyloxazol-4-yl)phenyl)carbamoyl)cyclohexyl methylcarbamate]
≥ 6.60 | COc1ccc([C@H]2CC[C@H](CN(c3cccc(-c4coc(C5CC5)n4)c3)C(=O)[C@H]3CC[C@H](OC(=O)NCCCO)CC3)CC2)nc1C [Compound 6.51, trans-4-((3-(2-Cyclopropyloxazol-4-yl)phenyl)((trans-4-(5-methoxy-6-methylpyridin-2-yl)cyclohexyl)methyl)carbamoyl)cyclohexyl (3-hydroxypropyl)carbamate]
≥ 6.60 | COc1ccc([C@H]2CC[C@H](CN(c3cccc(-c4cnc(C(C)C)s4)c3)C(=O)[C@H]3CC[C@H](CC(=O)O)CC3)CC2)nc1C [Compound 20.07, 2-(trans-4-((3-(2-Isopropylthiazol-5-yl)phenyl)((trans-4-(5-methoxy-6-methylpyridin-2-yl)cyclohexyl)methyl)carbamoyl)cyclohexyl) acetic acid]
≥ 6.60 | COc1ccc([C@H]2CC[C@H](CN(c3cccc(-c4cnc(C5CC5)s4)c3)C(=O)[C@H]3CC[C@H](NC(=O)CSC)CC3)CC2)cc1C [Compound 31.10, trans-N-(3-(2-Cyclopropylthiazol-5-yl)phenyl)-N-((trans-4-(4-methoxy-3-methylphenyl)cyclohexyl)methyl)-4-(2-(methylthio)acetamido) cyclohexanecarboxamide]
≥ 6.60 | COc1ccc([C@H]2CC[C@H](CN(c3cccc(-c4cnn(C5CC5)c4)c3)C(=O)[C@H]3CC[C@H](OC(=O)NCCO)CC3)CC2)nc1C#N [Compound 6.28, trans-4-(((trans-4-(6-Cyano-5-methoxypyridin-2-yl)cyclohexyl)methyl) (3-(1-cyclopropyl-1H-pyrazol-4-yl)phenyl)carbamoyl)cyclohexyl (2-hydroxyethyl)carbamate]
≥ 6.60 | COc1ccc([C@H]2CC[C@H](CN(c3cccc(-c4cnn(C(C)C)c4)c3)C(=O)[C@H]3CC[C@H](OC(=O)N4CC(CO)C4)CC3)CC2)nc1C [Compound 7.61, trans-4-((3-(1-Isopropyl-1H-pyrazol-4-yl)phenyl)((trans-4-(5-methoxy-6-methylpyridin-2-yl)cyclohexyl)methyl)carbamoyl)cyclohexyl 3-(hydroxymethyl)azetidine-1-carboxylate]
≥ 6.60 | CNC(=O)O[C@H]1CC[C@H](C(=O)N(C[C@H]2CC[C@H](c3ccc(OC)c(C)n3)CC2)c2cccc(-c3cnc(C4CC4)s3)c2)CC1 [Compound 2.02, trans-4-((3-(2-Cyclopropylthiazol-5-yl)phenyl)((trans-4-(5-methoxy-6-methylpyridin-2-yl)cyclohexyl)methyl)carbamoyl)cyclohexyl methylcarbamate]
≥ 6.60 | COc1ccc([C@H]2CC[C@H](CN(c3cccc(-c4cnn(C5CC5)c4)c3)C(=O)[C@H]3CC[C@H](NC(=O)[C@H]4CC[C@H](O)CC4)CC3)CC2)cc1C [Compound 26.06, trans-N-(3-(1-Cyclopropyl-1H-pyrazol-4-yl)phenyl)-4-(trans-4-hydroxycyclohexanecarboxamido)-N-((trans-4-(4-methoxy-3-methylphenyl)cyclohexyl)methyl) cyclohexanecarboxamide]
≥ 6.60 | COc1ccc([C@H]2CC[C@H](CN(c3cccc(-c4cnn(C5CC5)c4)c3)C(=O)[C@H]3CC[C@H](OC(=O)N(C)C)CC3)CC2)cc1C [Compound 5.22, trans-4-((3-(1-Cyclopropyl-1H-pyrazol-4-yl)phenyl)((trans-4-(4-methoxy-3-methylphenyl)cyclohexyl)methyl)carbamoyl)cyclohexyl dimethylcarbamate]
≥ 6.60 | CNC(=O)O[C@H]1CC[C@H](C(=O)N(C[C@H]2CC[C@H](c3ccc(OC)c(C#N)n3)CC2)c2cc(-c3coc(C4CC4)n3)ccn2)CC1 [Compound 5.44, trans-4-(((trans-4-(6-Cyano-5-methoxypyridin-2-yl)cyclohexyl)methyl)(4-(2-cyclopropyloxazol-4-yl)pyridine-2-yl)carbamoyl)cyclohexyl methylcarbamate]
≥ 6.60 | COc1ccc([C@H]2CC[C@H](CN(c3cccc(-c4cnc(C5CC5)s4)c3)C(=O)[C@H]3CC[C@H](NC(=O)CNS(C)(=O)=O)CC3)CC2)cc1C [Compound 30.06, trans-N-(3-(2-Cyclopropylthiazol-5-yl)phenyl)-N-((trans-4-(4-methoxy-3-methylphenyl)cyclohexyl)methyl)-4-(2-(methylsulfonamido)acetamido) cyclohexanecarboxamide]
≥ 6.60 | COc1ncc(-c2cccc(N(C[C@H]3CC[C@H](c4ccc(OC)c(C)c4)CC3)C(=O)[C@H]3CC[C@H](C(N)=O)CC3)c2)s1 [Compound 24.01, trans-N^1-((trans-4-(4-Methoxy-3-methylphenyl)cyclohexyl)methyl)-N^1-(3-(2-methoxythiazol-5-yl)phenyl)cyclohexane-1,4-dicarboxamide]
≥ 6.60 | COc1ccc([C@H]2CC[C@H](CN(c3cc(-c4cnn(C5CC5)c4)ccn3)C(=O)[C@H]3CC[C@H](OC(=O)NCCO)CC3)CC2)cc1C#N [Compound 6.21, trans-4-(((trans-4-(3-Cyano-4-methoxyphenyl)cyclohexyl)methyl)(4-(1-cyclopropyl-1H-pyrazol-4-yl)pyridin-2-yl)carbamoyl)cyclohexyl (2-hydroxyethyl)carbamate]
≥ 6.60 | CNC(=O)OCC(=O)N[C@H]1CC[C@H](C(=O)N(C[C@H]2CC[C@H](c3ccc(OC)c(C)c3)CC2)c2cccc(-c3cnn(C4CC4)c3)c2)CC1 [Compound 26.04, 2-((trans-4-((3-(1-Cyclopropyl-1H-pyrazol-4-yl)phenyl)((trans-4-(4-methoxy-3-methylphenyl)cyclohexyl)methyl)carbamoyl)cyclohexyl)amino)-2-oxoethyl methylcarbamate]
≥ 6.60 | COc1ccc([C@H]2CC[C@H](CN(c3cc(-c4cnn(C(C)C)c4)ccn3)C(=O)[C@H]3CC[C@H](OC(=O)N4CC(O)C4)CC3)CC2)cc1C#N [Compound 7.22, trans-4-(((trans-4-(3-Cyano-4-methoxyphenyl)cyclohexyl)methyl)(4-(1-isopropyl-1H-pyrazol-4-yl)pyridin-2-yl)carbamoyl)cyclohexyl 3-hydroxyazetidine-1-carboxylate]
